Laboratory results published in patent US11066413B2, “Aminopyrimidine five-membered heterocyclic compound, and intermediate, preparation method, pharmaceutical composition and application thereof” (GUANGZHOU MAXINOVEL PHARMACEUTICALS CO., LTD., priority 2017, dated 2021).

target: hA2A receptor (Homo sapiens (Human), UniProt P29274); experiment: binding affinity IC50 to hA2A receptor ([3H]-CGS 21680 filter binding, Effect Embodiment 2); settings: A2A membrane, [3H]-CGS 21680 (final 25 nM), 90 minutes at 25° C.
Procedure: Evaluation experiment of the binding affinity IC50 of the compounds 1-61 to hA2A receptor
40 uL of ULTIMA GOLD scintillation fluid was added to each well and the CPM (count per minute) value was read by TopCount.

Sequence of hA2A receptor (P29274 whole entry): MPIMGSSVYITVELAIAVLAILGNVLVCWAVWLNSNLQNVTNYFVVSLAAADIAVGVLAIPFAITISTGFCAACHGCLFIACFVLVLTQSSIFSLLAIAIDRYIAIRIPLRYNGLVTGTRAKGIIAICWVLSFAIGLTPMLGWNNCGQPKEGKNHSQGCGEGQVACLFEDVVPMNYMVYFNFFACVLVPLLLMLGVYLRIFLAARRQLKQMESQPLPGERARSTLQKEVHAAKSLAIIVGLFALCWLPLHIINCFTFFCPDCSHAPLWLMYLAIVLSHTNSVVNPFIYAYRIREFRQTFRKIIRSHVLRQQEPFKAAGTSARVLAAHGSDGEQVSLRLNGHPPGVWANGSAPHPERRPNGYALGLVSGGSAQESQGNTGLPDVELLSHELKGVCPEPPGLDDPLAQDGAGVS

Question: “2-amino-6-(5-methylfuran-2-yl)-9-(2-(trifluoromethyl)phenyl)-8(9H)-carbonyl-7H-purine [Compound 60]” was tested. Which IC50 did it give?
Answer: 177 nM

Question: For “2-amino-9-((2-fluorophenyl)methyl)-6-(furan-2-yl)-7-methyl-8,9-dihydro-7H-purinyl-8-one [Compound 40]”, which IC50 is on record?
Answer: 106 nM

Question: For Nc1nc(-c2ccco2)c2c(n1)C(Cc1ccc(Cl)cc1F)OC2=O (stereo not drawn) [Compound 2, 2-amino-7-(4-chloro-2-fluorobenzyl)-4-(furan-2-yl)-5H,7H-furo[3,4-d]pyrimidin-5-one], which IC50 is on record?
Answer: 39.3 nM

Question: For N#Cc1ccc(CC2OC(=O)c3c(-c4ccco4)nc(N)nc32)cc1F (stereo not drawn) [Compound 3], which IC50 is on record?
Answer: 159 nM

Question: N#Cc1ccc(CC2OC(=O)c3c(-c4ccco4)nc(N)nc32)cc1 (stereo not drawn) [Compound 4] was tested. Which IC50 did it give?
Answer: 249 nM

Question: How did the IC50 turn out when Nc1nc(-c2ccco2)c2c(n1)C(Cc1ccccc1)OC2=O (stereo not drawn) [Compound 5, 2-amino-7-benzyl-4-(furan-2-yl)-5H,7H-furo[3,4-d]pyrimidin-5-one] was run?
Answer: 40 nM

Question: Nc1nc(-c2ccco2)c2c(n1)[C@@H](Cc1ccccc1)OC2 [Compound 6, (R)-7-benzyl-4-(furan-2-yl)-5,7-dihydrofuro[3,4-d]pyrimidin-2-amine] was tested. Which IC50 did it give?
Answer: 157 nM

Question: How did the IC50 turn out when Nc1nc(-c2ccco2)c2c(n1)C(Cc1ccc(F)cc1F)OC2=O (stereo not drawn) [Compound 8, 2-amino-7-(2,4-difluorobenzyl)-4-(furan-2-yl)-5H,7H-furo[3,4-d]pyrimidin-5-one] was run?
Answer: 10.7 nM

Question: With Nc1nc(-c2ccco2)c2c(n1)C(Cc1ccc(F)cc1Cl)OC2=O (stereo not drawn) [Compound 10, 2-amino-7-(2-chloro-4-fluorobenzyl)-4-(furan-2-yl)-5H,7H-furo[3,4-d]pyrimidin-5-one] as the compound, how does the IC50 read?
Answer: 114 nM

Question: Nc1nc(-c2ccco2)c2c(n1)C(Cc1ccccc1Cl)OC2=O (stereo not drawn) [Compound 11, 2-amino-7-(2-chlorobenzyl)-4-(furan-2-yl)-5H,7H-furo[3,4-d]pyrimidin-5-one] was tested. Which IC50 did it give?
Answer: 32.1 nM

Question: Which IC50 does the source give for Nc1nc(-c2ccco2)c2c(n1)C(Cc1ccc(Cl)c(F)c1)OC2=O (stereo not drawn) [Compound 12, 2-amino-7-(4-chloro-3-fluorobenzyl)-4-(furan-2-yl)-5H,7H-furo[3,4-d]pyrimidin-5-one] here?
Answer: 99.8 nM

Question: For CS(=O)(=O)c1ccc(CC2OC(=O)c3c(-c4ccco4)nc(N)nc32)cc1 (stereo not drawn) [Compound 13, 2-amino-4-(furan-2-yl)-7-(4-methylsulfonylbenzyl)-5H,7H-furo[3,4-d]pyrimidin-5-one], which IC50 is on record?
Answer: 152 nM

Question: NC(=O)c1ccc(CC2OC(=O)c3c(-c4ccco4)nc(N)nc32)cc1 (stereo not drawn) [Compound 14, 4-((2-amino-4-(furan-2-yl)-5-oxo-5H,7H-furo[3,4-d]pyrimidin-7-yl)methyl)benzamide] was tested. Which IC50 did it give?
Answer: 218 nM

Question: Which IC50 does the source give for Nc1nc(-c2ccco2)c2c(n1)C(Cc1ccc(C(F)(F)F)cc1)OC2=O (stereo not drawn) [Compound 15] here?
Answer: 274 nM

Question: Which IC50 does the source give for Nc1nc(-c2ccco2)c2c(n1)C(Cc1ccccc1C(F)(F)F)OC2=O (stereo not drawn) [Compound 16, 2-amino-4-(furan-2-yl)-7-((2-(trifluoromethyl)phenyl)methyl)-5H,7H-furo[3,4-d]pyrimidin-5-one] here?
Answer: 15.7 nM

Question: How did the IC50 turn out when Nc1nc(-c2ccco2)c2c(n1)C(Cc1c(F)cccc1Cl)OC2=O (stereo not drawn) [Compound 17, 2-amino-7-((2-chloro-6-fluorophenyl)methyl)-4-(furan-2-yl)-5H,7H-furo[3,4-d]pyrimidin-5-one] was run?
Answer: 29.2 nM

Question: For Nc1nc(-c2ccco2)c2c(n1)C(Cc1cccc(Cl)c1F)OC2=O (stereo not drawn) [Compound 18, 2-amino-7-((3-chloro-2-fluorophenyl)methyl)-4-(furan-2-yl)-5H,7H-furo[3,4-d]pyrimidin-5-one], which IC50 is on record?
Answer: 73.7 nM

Question: With Cc1ccccc1CC1OC(=O)c2c(-c3ccco3)nc(N)nc21 (stereo not drawn) [Compound 19, 2-amino-7-((2-methylphenyl)methyl)-4-(furan-2-yl)-5H,7H-furo[3,4-d]pyrimidin-5-one] as the compound, how does the IC50 read?
Answer: 31.1 nM

Question: With Nc1nc(-c2ccco2)c2c(n1)C(Cc1cc(C(F)(F)F)cc(C(F)(F)F)c1)OC2=O (stereo not drawn) [Compound 20, 2-amino-7-((3,5-di(trifluoromethyl)phenyl)methyl)-4-(furan-2-yl)-5H,7H-furo[3,4-d]pyrimidin-5-one] as the compound, how does the IC50 read?
Answer: 299 nM

Question: Which IC50 does the source give for Nc1nc(-c2ccco2)c2c(n1)C(Cc1ccc(OC(F)(F)F)cc1)OC2=O (stereo not drawn) [Compound 21, 2-amino-7-((4-(trifluoromethoxyl)phenyl)methyl)-4-(furan-2-yl)-5H,7H-furo[3,4-d]pyrimidin-5-one] here?
Answer: 106 nM

Question: Nc1nc(-c2ccco2)c2c(n1)C(Cc1c(F)cccc1F)OC2=O (stereo not drawn) [Compound 22, 2-amino-7-((2,6-difluorophenyl)methyl)-4-(furan-2-yl)-5H,7H-furo[3,4-d]pyrimidin-5-one] was tested. Which IC50 did it give?
Answer: 47.3 nM

Question: Which IC50 does the source give for Nc1nc(-c2ccco2)c2c(n1)C(Cc1ccccc1OC(F)(F)F)OC2=O (stereo not drawn) [Compound 23, 2-amino-7-((2-(trifluoromethoxyl)phenyl)methyl)-4-(furan-2-yl)-5H,7H-furo[3,4-d]pyrimidin-5-one] here?
Answer: 3.9 nM

Question: Which IC50 does the source give for Nc1nc(-c2ccccn2)c2c(n1)C(Cc1ccccc1)OC2=O (stereo not drawn) [Compound 24, 2-amino-7-benzyl-4-(pyridin-2-yl)-5H,7H-furo[3,4-d]pyrimidin-5-one] here?
Answer: 918 nM

Question: Which IC50 does the source give for Cc1ccc(-c2nc(N)nc3c2C(=O)OC3Cc2ccc(F)cc2F)o1 (stereo not drawn) [Compound 26, 2-amino-7-((2,4-difluorophenyl)methyl)-4-(5-methylfuran-2-yl)-5H,7H-furo[3,4-d]pyrimidin-5-one] here?
Answer: 32.1 nM

Question: How did the IC50 turn out when Cc1ccc(-c2nc(N)nc3c2C(=O)OC3Cc2ccccc2F)o1 (stereo not drawn) [Compound 27, 2-amino-7-((2-fluorophenyl)methyl)-4-(5-methylfuran-2-yl)-5H,7H-furo[3,4-d]pyrimidin-5-one] was run?
Answer: 21 nM

Question: How did the IC50 turn out when Cc1ccc(-c2nc(N)nc3c2C(=O)OC3Cc2ccccc2C(F)(F)F)o1 (stereo not drawn) [Compound 28, 2-amino-7-((2-(trifluoromethyl)phenyl)methyl)-4-(5-methylfuran-2-yl)-5H,7H-furo[3,4-d]pyrimidin-5-one] was run?
Answer: 11.2 nM

Question: Cc1ccc(-c2nc(N)nc3c2C(=O)OC3Cc2cc(F)ccc2F)o1 (stereo not drawn) [Compound 29, 2-amino-7-((2,5-difluorophenyl)methyl)-4-(5-methylfuran-2-yl)-5H,7H-furo[3,4-d]pyrimidin-5-one] was tested. Which IC50 did it give?
Answer: 252 nM

Question: Cc1ccc(-c2nc(N)nc3c2C(=O)OC3Cc2cc(Cl)ccc2F)o1 (stereo not drawn) [Compound 30, 2-amino-7-((5-chloro-2-fluorophenyl)methyl)-4-(5-methylfuran-2-yl)-5H,7H-furo[3,4-d]pyrimidin-5-one] was tested. Which IC50 did it give?
Answer: 94 nM

Question: How did the IC50 turn out when Cc1ccc(-c2nc(N)nc3c2C(=O)OC3Cc2c(F)cccc2Cl)o1 (stereo not drawn) [Compound 31, 2-amino-7-((6-chloro-2-fluorophenyl)methyl)-4-(5-methylfuran-2-yl)-5H,7H-furo[3,4-d]pyrimidin-5-one] was run?
Answer: 38.4 nM

Question: For Cc1ccc(-c2nc(N)nc3c2C(=O)OC3Cc2ccc(F)cc2C(F)(F)F)o1 (stereo not drawn) [Compound 32, 2-amino-7-((4-fluoro-2-(trifluoromethyl)phenyl)methyl)-4-(5-methylfuran-2-yl)-5H,7H-furo[3,4-d]pyrimidin-5-one], which IC50 is on record?
Answer: 19.9 nM

Question: With Nc1nc(-c2ccco2)c2c(n1)[C@H](Cc1ccccc1)OC2 [Compound 33, (S)-7-benzyl-4-(furan-2-yl)-5,7-dihydrofuro[3,4-d]pyrimidin-2-amine] as the compound, how does the IC50 read?
Answer: 275 nM

Question: Which IC50 does the source give for Cn1c(=O)n(Cc2ccc(F)cc2F)c2nc(N)nc(-c3ccco3)c21 [Compound 35, 2-amino-9-((2,4-difluorophenyl)methyl)-6-(furan-2-yl)-7-methyl-8,9-dihydro-7H-purinyl-8-one] here?
Answer: 30.1 nM

Question: Cc1ccc(-c2nc(N)nc3c2C(=O)OC3Cc2ccccc2OC(F)(F)F)o1 (stereo not drawn) [Compound 36, 2-amino-7-((2-(trifluoromethoxyl)phenyl)methyl)-4-(5-methylfuran-2-yl)-5H,7H-furo[3,4-d]pyrimidin-5-one] was tested. Which IC50 did it give?
Answer: 28.1 nM

Question: How did the IC50 turn out when Nc1nc(-c2ccc(Br)o2)c2c(n1)C(Cc1ccccc1OC(F)(F)F)OC2=O (stereo not drawn) [Compound 37, 2-amino-7-((2-(trifluoromethoxyl)phenyl)methyl)-4-(5-bromofuran-2-yl)-5H,7H-furo[3,4-d]pyrimidin-5-one] was run?
Answer: 67.4 nM

Question: How did the IC50 turn out when CN1C(=O)c2c(nc(N)nc2-c2ccco2)C1=Cc1ccccc1F [Compound 38, 2-amino-7-((2-fluorophenyl)methylene)-4-(furan-2-yl)-6-methyl-5H,6H,7H-pyrrolo[3,4-d]pyrimidin-5-one] was run?
Answer: 6.1 nM

Question: With Cc1ccc(-c2nc(N)nc3c2C(=O)OC3Cc2ccccc2OC(F)F)o1 (stereo not drawn) [Compound 39, 2-amino-7-((2-(difluoromethoxyl)phenyl)methyl)-4-(5-methylfuran-2-yl)-5H,7H-furo[3,4-d]pyrimidin-5-one] as the compound, how does the IC50 read?
Answer: 128 nM

Question: Which IC50 does the source give for Cn1c(=O)n(Cc2ccccc2F)c2nc(N)nc(-c3ccco3)c21 [Compound 41, 2-amino-9-((2-fluorophenyl)methyl)-6-(furan-2-yl)-7-methyl-8,9-dihydro-7H-purinyl-8-one] here?
Answer: 43.5 nM

Question: How did the IC50 turn out when Cc1ccc(-c2nc(N)nc3c2C(=O)OC3Cc2ccc(F)cc2F)o1 (stereo not drawn) [Compound 42, 2-amino-7-((2,4-difluorophenyl)methyl)-7-deuterium-4-(5-methylfuran-2-yl)-5H,7H-furo[3,4-d]pyrimidin-5-one] was run?
Answer: 87.4 nM

Question: With Cc1ccc(-c2nc(N)nc3c2C(=O)OC3(C)Cc2ccccc2F)o1 (stereo not drawn) [Compound 43, 2-amino-7-((2-fluorophenyl)methyl)-7-methyl-4-(5-methylfuran-2-yl)-5H,7H-furo[3,4-d]pyrimidin-5-one] as the compound, how does the IC50 read?
Answer: 992 nM

Question: With CN1C(=O)c2c(-c3ccco3)nc(N)nc2C1Cc1ccccc1F (stereo not drawn) [Compound 44, 2-amino-7-((2-fluorophenyl)methyl)-4-(furan-2-yl)-6-methyl-5H,6H,7H-pyrrolo[3,4-d]pyrimidin-5-one] as the compound, how does the IC50 read?
Answer: 64.6 nM

Question: Which IC50 does the source give for CN1C(=O)c2c(-c3ccco3)nc(N)nc2C1Cc1ccccc1OC(F)(F)F (stereo not drawn) [Compound 45, 2-amino-7-((2-trifluoromethoxylphenyl)methyl)-4-(furan-2-yl)-6-methyl-5H,6H,7H-pyrrolo[3,4-d]pyrimidin-5-one] here?
Answer: 11.6 nM

Question: CN1C(=O)c2c(nc(N)nc2-c2ccco2)C1=Cc1ccc(F)cc1F [Compound 46, 2-amino-7-((2,4-difluorophenyl)methylene)-4-(furan-2-yl)-6-methyl-5H,6H,7H-pyrrolo[3,4-d]pyrimidin-5-one] was tested. Which IC50 did it give?
Answer: 8.7 nM
